Measured values reported in patent US11306123B2, “Heterotandem bicyclic peptide complex” (BicycleTx Limited, priority 2019, dated 2022).
Read-outs that look alike come from different tables or passages of the source.

Columns and labels:
[1] = Pharmacokinetics in SD Rats; assay type: in vivo, rat
Description: 3. Pharmacokinetics of the Nectin-4/CD137 Heterotandem BCY11863 in SD Rats
Male SD Rats were dosed with the Nectin-4/CD137 heterotandem BCY11863 formulated in 25 mM Histidine HCl, 10% sucrose pH 7 by IV bolus, IV infusion (15 minutes) or subcutaneously. Serial bleeding (about 80 μL blood/time point) was performed via submandibular or saphenous vein at each time point. All blood samples were immediately transferred into prechilled microcentrifuge tubes containing 2 μL K2-EDTA (0.5M) as anti-coagulant and placed on wet ice. Blood samples were immediately processed for plasma by centrifugation at approximately 4° C., 3000 g. The precipitant including internal standard was immediately added into the plasma, mixed well and centrifuged at 12,000 rpm, 4° C. for 10 minutes. The supernatant was transferred into pre-labeled polypropylene microcentrifuge tubes, and then quick-frozen over dry ice. The samples were stored at […] or below as needed until analysis. 7.5 μL of the supernatant samples were directly injected for LC-MS/MS analysis using an Orbitrap Q Exactive in positive ion mode to determine the concentrations of analyte. Plasma concentration versus time data were analyzed by non-compartmental approaches using the Phoenix WinNonlin 6.3 software program. C0, CI, Vdss, T½, AUC(0-last), AUC(0-inf), MRT(0-last), MRT(0-inf) and graphs of plasma concentration versus time profile were reported.

cyno CD137 = biological target: T1, cyno CD137 (Macaca fascicularis, UniProt A9YYE7); assay: SPR, biotinylated analogue captured on chip, binding to CD137 extracellular domain
T1 construct: extracellular domain: SPR data
T1 sequence (A9YYE7 24-186): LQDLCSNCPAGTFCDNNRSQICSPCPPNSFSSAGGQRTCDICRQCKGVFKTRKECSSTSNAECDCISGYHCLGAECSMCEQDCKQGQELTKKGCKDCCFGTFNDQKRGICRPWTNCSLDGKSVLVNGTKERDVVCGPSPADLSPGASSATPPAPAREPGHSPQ

human CD137 = biological target: T2, human CD137 (Homo sapiens, UniProt Q07011); assay: as above
T2 construct: extracellular domain: SPR data
T2 sequence (Q07011 24-186 limits assumed): as the sequence (A9YYE7 24-186) above, with L4P, S19N, K50R, I66T, S67P, Y69F, E75G, A149V counted along it

[2] = system: 5484 full-length human plasma membrane proteins and secreted proteins expressed in HEK293 cells; assay: Retrogenix cell microarray off-target screening; assay type: binding; details: 1 μM test peptide
Description: Retrogenix microarray screening: Retrogenix's cell microarray technology was used to screen for specific off-target binding interactions of a biotinylated BCY11863 known as BCY13582.
Under these conditions, the test peptide was screened for binding against human HEK293 cells, individually expressing 5484 full-length human plasma membrane proteins and secreted proteins.
Each primary hit was re-expressed, along with two control receptors (TGFBR2 and EGFR), and re-tested with 1 μM BCY13582 test peptide, 1 μM BCY13582 test peptide in the presence of 100 μM BCY11863, and other positive and negative control treatments (FIG. 4). […] These were untethered and tethered forms of Nectin-4, and CD137—the primary targets.

[3] = in vivo, SD rat plasma, analyte after 100 mg/kg IV BCY11863
[4] = in vivo, SD rat plasma, analyte after 100 mg/kg IV BCY11863, read-out: T1/2 (converted)

Compound: CCCC[C@@H]1NC(=O)[C@H](Cc2ccc(O)cc2)NC(=O)[C@@H]2CCCN2C(=O)[C@H](CC(=O)O)NC(=O)[C@H](C)NC(=O)[C@H](Cc2ccccc2)NC(=O)[C@@H]2CSCCC(=O)N3CN(CN(C3)C(=O)CCSC[C@@H](C(=O)N[C@@H](C)C(N)=O)NC1=O)C(=O)CCSC[C@H](NC(C)=O)C(=O)N[C@@H](CC(C)(C)C)C(=O)N1CCC[C@H]1C(=O)N[C@@H](CCC(=O)O)C(=O)N[C@H](CCCCNC(=O)CCc1cn(CCOCCOCCOCCN(CCOCCOCCOCCC(=O)N[C@H]3CSCCC(=O)N4CN5CN(C4)C(=O)CCSC[C@H](NC(=O)[C@@H](CC(=O)O)NC(=O)[C@H](Cc4cccc6ccccc46)NC(=O)[C@@H]4CCCN4C3=O)C(=O)N[C@@H](CCSC)C(=O)N[C@@H](CCCCNC(=N)N)C(=O)N[C@@H](CC(=O)O)C(=O)N[C@@H](Cc3c[nH]c4ccccc34)C(=O)N[C@@H](CO)C(=O)N[C@@H]([C@@H](C)O)C(=O)N3CCC[C@H]3C(=O)N3C[C@H](O)C[C@H]3C(=O)N[C@@H](Cc3c[nH]c4ccccc34)C(=O)N[C@H](C(N)=O)CSCCC5=O)CCOCCOCCOCCn3cc(CCC(=O)NCCCC[C@H]4NC(=O)[C@H](CCC(=O)O)NC(=O)[C@@H]5CCCN5C(=O)[C@H](CC(C)(C)C)NC(=O)[C@@H](NC(C)=O)CSCCC(=O)N5CN6CN(C5)C(=O)CCSC[C@H](NC(=O)[C@H](Cc5ccc(O)cc5)NC(=O)[C@@H]5CCCN5C4=O)C(=O)N[C@@H](Cc4ccccc4)C(=O)N[C@@H](C)C(=O)N[C@@H](CC(=O)O)C(=O)N4CCC[C@H]4C(=O)N[C@@H](Cc4ccc(O)cc4)C(=O)N[C@@H](CCCC)C(=O)N[C@H](C(=O)N[C@@H](C)C(N)=O)CSCCC6=O)nn3)nn1)C(=O)N1CCC[C@H]1C(=O)N[C@@H](Cc1ccc(O)cc1)C(=O)N2 [BCY11863]
- Conversion to BCY14602 ([1]; SD rats, IV 100 mg/kg, first 24 h of the study): No significant conversion to BCY14602
- Fraction metabolized to BCY15155 ([1]; SD rats, IV administration, 100 mg/kg): < 1%
- AUC [1, 3]: 130000 ng·h/mL
- Cmax [1, 3]: 280 µg/mL
- half-life [1, 4]: 5.4 h
- clearance ([1]; in vivo, SD rat, 100 mg/kg IV BCY11863, read-out: Clp): 13 mL/min/kg
- half-life ([1]; rat, in vivo, SD rats, 3.2 mg/kg IV Inf (15 min), read-out: T½ (converted)): 3.1 h
- half-life ([1]; rat, in vivo, SD rats, 6.3 mg/kg Sc, read-out: T½ (converted)): 2.5 h

Compound: CCCC[C@@H]1NC(=O)[C@H](Cc2ccc(O)cc2)NC(=O)[C@@H]2CCCN2C(=O)[C@H](CC(=O)O)NC(=O)[C@H](C)NC(=O)[C@H](Cc2ccccc2)NC(=O)[C@@H]2CSCCC(=O)N3CN(CN(C3)C(=O)CCSC[C@@H](C(=O)N[C@@H](C)C(N)=O)NC1=O)C(=O)CCSC[C@H](NC(C)=O)C(=O)N[C@@H](CC(C)(C)C)C(=O)N1CCC[C@H]1C(=O)N[C@@H](CCC(=O)O)C(=O)N[C@H](CCCCNC(=O)CCc1cn(CCOCCOCCOCCN(CCOCCOCCOCCC(=O)N[C@H]3CSCCC(=O)N4CN5CN(C4)C(=O)CCSC[C@H](NC(=O)[C@@H](CC(=O)O)NC(=O)[C@H](Cc4cccc6ccccc46)NC(=O)[C@@H]4CCCN4C3=O)C(=O)N[C@@H](CCSC)C(=O)N[C@@H](CCCCNC(=N)N)C(=O)N[C@@H](CC(=O)O)C(=O)N[C@@H](Cc3c[nH]c4ccccc34)C(=O)N[C@@H](CO)C(=O)N[C@@H]([C@@H](C)O)C(=O)N3CCC[C@H]3C(=O)N3C[C@H](O)C[C@H]3C(=O)N[C@@H](Cc3c[nH]c4ccccc34)C(=O)N[C@H](C(N)=O)CSCCC5=O)CCOCCOCCOCCn3cc(CCC(=O)NCCCC[C@H]4NC(=O)[C@H](CCC(=O)O)NC(=O)[C@@H]5CCCN5C(=O)[C@H](CC(C)(C)C)NC(=O)[C@@H](NC(C)=O)CSCCC(=O)N5CN6CN(C5)C(=O)CCSC[C@H](NC(=O)[C@H](Cc5ccc(O)cc5)NC(=O)[C@@H]5CCCN5C4=O)C(=O)N[C@@H](Cc4ccccc4)C(=O)N[C@@H](C)C(=O)N[C@@H](CC(=O)O)C(=O)N4CCC[C@H]4C(=O)N[C@@H](Cc4ccc(O)cc4)C(=O)N[C@@H](CCCC)C(=O)N[C@H](C(=O)N[C@@H](CCCCNC(=O)CCOCCOCCOCCOCCOCCOCCOCCOCCOCCOCCOCCOCCNC(=O)CCCC[C@@H]4SC[C@@H]5NC(=O)N[C@@H]54)C(N)=O)CSCCC6=O)nn3)nn1)C(=O)N1CCC[C@H]1C(=O)N[C@@H](Cc1ccc(O)cc1)C(=O)N2 [BCY13582]
- Kd (cyno CD137): 4.23 nM
- Kd (human CD137): 8.4 ± 4.2 nM
- Specific off-target interactions [2]: No specific off-target interactions were identified

Compound: CCCC[C@@H]1NC(=O)[C@H](Cc2ccc(O)cc2)NC(=O)[C@@H]2CCCN2C(=O)[C@H](CC(=O)O)NC(=O)[C@H](C)NC(=O)[C@H](Cc2ccccc2)NC(=O)[C@@H]2CSCCC(=O)N3CN(CN(C3)C(=O)CCSC[C@@H](C(=O)N[C@@H](C)C(N)=O)NC1=O)C(=O)CCSC[C@H](NC(C)=O)C(=O)N[C@@H](CC(C)(C)C)C(=O)N1CCC[C@H]1C(=O)N[C@@H](CCC(=O)O)C(=O)N[C@H](CCCCNC(=O)CCc1cn(CCOCCOCCOCCN(CCOCCOCCOCCC(=O)N[C@H]3CSCCC(=O)N4CN5CN(C4)C(=O)CCSC[C@H](NC(=O)[C@@H](CC(=O)O)NC(=O)[C@H](Cc4cccc6ccccc46)NC(=O)[C@@H]4CCCN4C3=O)C(=O)N[C@@H](CCSC)C(=O)N[C@@H](CCCCNC(=N)N)C(=O)N[C@@H](CC(=O)O)C(=O)N[C@@H](Cc3c[nH]c4ccccc34)C(=O)N[C@@H](CO)C(=O)N[C@@H]([C@@H](C)O)C(=O)N3CCC[C@H]3C(=O)N3C[C@H](O)C[C@H]3C(=O)N[C@@H](Cc3c[nH]c4ccccc34)C(=O)N[C@H](C(N)=O)CSCCC5=O)CCOCCOCCOCCn3cc(CCC(=O)NCCCC[C@H]4NC(=O)[C@H](CCC(=O)O)NC(=O)[C@@H]5CCCN5C(=O)[C@H](CC(C)(C)C)NC(=O)[C@@H](N)CSCCC(=O)N5CN6CN(C5)C(=O)CCSC[C@H](NC(=O)[C@H](Cc5ccc(O)cc5)NC(=O)[C@@H]5CCCN5C4=O)C(=O)N[C@@H](Cc4ccccc4)C(=O)N[C@@H](C)C(=O)N[C@@H](CC(=O)O)C(=O)N4CCC[C@H]4C(=O)N[C@@H](Cc4ccc(O)cc4)C(=O)N[C@@H](CCCC)C(=O)N[C@H](C(=O)N[C@@H](C)C(N)=O)CSCCC6=O)nn3)nn1)C(=O)N1CCC[C@H]1C(=O)N[C@@H](Cc1ccc(O)cc1)C(=O)N2 [BCY15155]
- AUC [1, 3]: 1300 ng·h/mL
- Cmax [1, 3]: 2.85 µg/mL
- half-life [1, 4]: 3.1 h
